Measured values from patent publication US8530404B2, “Compounds and methods for treatment of cancer” (FibroGen, Inc., priority 2005, dated 2013).
Like-named read-outs stand apart in the source and are kept apart here.

Legend:
human A549 lung tumors [1] = assay: Subcutaneously implanted human A549 lung tumor mouse xenograft (Example 2); assay type: in vivo
human A549 lung tumors [2] = assay: as above; assay type: in vivo; conditions: for tumor weight at necropsy, Mean / A549 mean tumor volume: 20 mg/kg PO; for increase in mean tumor volume: within 1 week (7 days) from start, 20 mg/kg, vehicle control 45%
Description: Immuno-compromised athymic CD-1 nu/nu nude mice males (5-6 weeks old) were used in this study (Charles River Laboratories, Wilmington, Mass.). Animals were maintained in a HEPA-filtered environment during the experimental period. Cages, food, and bedding were autoclaved. Animal diets were obtained from Harlan Teklad (Madison, Wis.). […] A stock tumor was established by subcutaneously injecting a cell suspension into nude mice. The resulting tumor was maintained in nude mice subcutaneously as tumor stock prior to use. Tumor implantation was performed when the stock tumors were in log phase of growth. Before implantation, tumor tissue was harvested from stock mice and placed in RPMI-1640 medium. Necrotic tissues were dissected away and viable tissues were cut into 1-2 mm^2 pieces. Tumor fragments were then transplanted subcutaneously to the right flank of the nude mice. Treatment (administration of compounds of the present invention) was started when the inoculated tumors reached approximately 100 mm^3, and continued for four weeks. […] Sizes of the primary tumors were measured through the skin with calipers once per week. […] Body weight of the mice in each group was also measured once per week during the experimental period. All animals were sacrificed following thirty-two days of treatment. Primary tumors were excised and weighed on an electronic balance. Blood samples were taken during terminal sacrifice and placed in microhematocrit tubes containing EDTA. Complete Blood Counts (CBC) and reticulocyte analysis were performed with the Cell Dyn 3700 analyzer (Abbott Diagnostics), as described by the manufacturer. Procedures were carried out as described above for Example 1, with the following changes. The human H-460 lung cancer cell line was replaced by the human A549 lung cancer cell line. Xenografted H460 tumors are characterized by a high growth rate, while xenografted A549 tumors progress substantially more slowly. A549 has been characterized extensively. […] Hanze et al., (2003) Biochem Biophys Res Commun 312:571-577; Wedge et al., (2002) Cancer Res 62:4645-4655; and Abdollahi et al., (2003) Cancer Res 63:8890-8898.) Compound B treatment groups (6 mg/kg, 20 mg/kg) were replaced by compound D treatment groups (6 mg/kg, 20 mg/kg). Other experimental parameters were identical to those described in Example 1 above.

BNIP3 gene expression = assay: In vivo BNIP3 gene expression in Swiss Webster mice (quantitative PCR); conditions: Mus musculus, iv, 4 h, single 60 mg/kg i.v. dose, four hours after administration, normalized to 18S
Experimental: (§1) The effects of various compounds of the present invention on the expression of genes associated with tumor growth and progression (e.g., expression of genes associated with anti-proliferative effects) were examined in vivo as follows. In these studies, male Swiss Webster mice (25 g) were administered a single intravenous (i.v.) dose of various compounds (60 mg/kg) of the present invention via the tail vein. Four hours after administration of compound, the kidneys and liver were removed and preserved in RNAlater (Ambion). RNA isolation and cDNA synthesis was carried out as follows. Murine kidney tissue was added to TRIzol (Invitrogen) and homogenized using a 5-mm stainless steel bead for 4 minutes at 25 Hz in a Mixer Mill 300 (Qiagen). Homogenates were extracted with chloroform according to the manufacturer's instructions and aqueous supernatants were isolated. The aqueous supernatants were combined with equal volumes of 70% ethanol and then loaded onto RNeasy Mini spin columns (Qiagen). RNA was isolated according to the manufacturer's instructions.
(§2) Synthesis of cDNA from the isolated total RNA was carried out using Omniscript reverse transcriptase (Qiagen) and random primers according to the manufacturer's instructions. Measurement of gene expression levels in compound-treated animals and in vehicle-treated control animals was performed by quantitative PCR using TaqMan Universal PCR Master Mix (Applied Biosystems) and TaqMan Assay-on-Demand assays (Applied Biosystems) in a Prism 7000 system instrument (Applied Biosystems), according to manufacturer's instructions. The assays used were as follows: 18S ribosomal RNA, Hs99999901_s1; BNIP3, Mm00833810_g1; BNIP3L, Mm00786306_s1; NDRG1, Mm00440447_m1. Each PCR amplification reaction included a standard curve and a water blank. Data for gene expression levels for BNIP3, BNIP3L, and NDRG1 were normalized to that of 18S ribosomal RNA within each sample. Data is presented as fold change in specific mRNA levels relative to that of non-treated control animals.

CDKN1C gene expression = CDKN1C gene expression in MCF7 cells; assay type: cell-based; conditions: Homo sapiens, MCF7, read-out: fold-increase in CDKN1C mRNA expression
Experimental: To identify compounds useful in the methods of the present invention, the following studies were performed. The effect of compounds of the present invention on expression of various genes associated with anti-tumor activity (e.g., genes having anti-proliferative activity, genes having pro-apoptotic activity, genes having anti-tumor activity, etc.). In these experiments, the effect of compounds on BNIP3, BNIP3L, NDRG1, CDKN1C, and REDD1/RTP801 gene expression in various types of cultured tumor cells line was examined, including Hep3B cells (human hepatocellular carcinoma), Kelly neuroblastoma cells, and MCF7 cells (human breast cancer)
The effects of various compounds of the present invention on the expression of genes associated with tumor growth and progression were examined in MCF7 breast cancer cells as follows. In some experiments, MCF7 (ATCC) cells were plated in 96-well tissue culture dishes (approximately 20,000 cells per well) and cultured in DMEM media supplemented with 10% serum. The following day, the cells were washed and the media was replaced with DMEM containing 0.5% FBS. Various compounds of the present invention were added to the cultured cells to a final concentration of 20 μM, and the cells cultured for an additional 20-24 hours. DMSO (0.5%) was added to control cell cultures. RNA was isolated as described above. Changes in gene expression levels are presented as fold change compared to that of control (0.5% DMSO-treated) cultures.

BNIP3L gene expression = assay: In vivo BNIP3L gene expression in Swiss Webster mice (quantitative PCR); conditions: Mus musculus, iv, 4 h, single 60 mg/kg i.v. dose, four hours after administration, normalized to 18S
Experimental: as §1, §2

[3] = read-out: fold change in BNIP3 mRNA level, kidney
[4] = read-out: fold change in BNIP3L mRNA level, kidney
[5] = read-out: fold change in BNIP3 mRNA level, liver
[6] = read-out: fold change in BNIP3L mRNA level, liver

Row | Compound | A549 mean tumor volume (human A549 lung tumors [1]; week 5, 20 mg/kg PO) | A549 mean tumor volume (human A549 lung tumors [1]; week 6, 20 mg/kg PO) | A549 mean tumor volume (human A549 lung tumors [1]; week 7, 20 mg/kg PO) | A549 mean tumor volume (human A549 lung tumors [1]; week 8, 20 mg/kg PO) | A549 mean tumor volume (human A549 lung tumors [1]; week 9, 20 mg/kg PO) | tumor weight at necropsy, Mean (human A549 lung tumors [2]) | A549 mean tumor volume (human A549 lung tumors [2]; week 0) | A549 mean tumor volume (human A549 lung tumors [2]; week 1) | A549 mean tumor volume (human A549 lung tumors [2]; week 2) | A549 mean tumor volume (human A549 lung tumors [2]; week 3) | A549 mean tumor volume (human A549 lung tumors [2]; week 4) | fold induction at 60 mg/kg (BNIP3 gene expression; [3]) | fold induction at 20 µM (CDKN1C gene expression) | fold induction at 60 mg/kg (BNIP3L gene expression; [4]) | fold induction at 60 mg/kg (BNIP3 gene expression; [5]) | increase in mean tumor volume (human A549 lung tumors [2]) | fold induction at 60 mg/kg (BNIP3L gene expression; [6]) | other results
1 | O=C(O)CNC(=O)c1nc(Cl)c2ccccc2c1O [Compound A, [(1-Chloro-4-hydroxy-isoquinoline-3-carbonyl)-amino]-acetic acid] | 375 mm^3 | 428 mm^3 | 523 mm^3 | 547 mm^3 | 615 mm^3 | 0.76 g | 100 mm^3 | 138 mm^3 | 173 mm^3 | 241 mm^3 | 328 mm^3 |  |  |  |  |  |  | tumor weight at necropsy, Mean (human A549 lung tumors [1]; 60 mg/kg PO): 0.81 g; A549 mean tumor volume (human A549 lung tumors [1]; week 0, 60 mg/kg PO): 105 mm^3; A549 mean tumor volume (human A549 lung tumors [1]; week 1, 60 mg/kg PO): 133 mm^3; A549 mean tumor volume (human A549 lung tumors [1]; week 2, 60 mg/kg PO): 175 mm^3; A549 mean tumor volume (human A549 lung tumors [1]; week 3, 60 mg/kg PO): 234 mm^3; A549 mean tumor volume (human A549 lung tumors [1]; week 4, 60 mg/kg PO): 324 mm^3; A549 mean tumor volume (human A549 lung tumors [1]; week 5, 60 mg/kg PO): 348 mm^3; A549 mean tumor volume (human A549 lung tumors [1]; week 6, 60 mg/kg PO): 425 mm^3; A549 mean tumor volume (human A549 lung tumors [1]; week 7, 60 mg/kg PO): 514 mm^3; A549 mean tumor volume (human A549 lung tumors [1]; week 8, 60 mg/kg PO): 538 mm^3; A549 mean tumor volume (human A549 lung tumors [1]; week 9, 60 mg/kg PO): 597 mm^3
2 | C[C@H](NC(=O)c1ncc2cc(Oc3ccccc3)ccc2c1O)C(=O)O [Compound B, (S)-2-[(4-Hydroxy-7-phenoxy-isoquinoline-3-carbonyl)-amino]-propionic acid] |  |  |  |  |  |  |  |  |  |  |  | 2.1 | 0.5 | 1.2 |  |  |  | 
3 | COc1ccc(Oc2ccc3c(O)c(C(=O)NCC(=O)O)ncc3c2)cc1 [Compound C, {[4-Hydroxy-7-(4-methoxy-phenoxy)-isoquinoline-3-carbonyl]-amino}-acetic acid] | 246 mm^3 | 304 mm^3 | 341 mm^3 | 402 mm^3 | 429 mm^3 | 0.50 g | 102 mm^3 | 124 mm^3 | 152 mm^3 | 180 mm^3 | 208 mm^3 | 1.5 | 0.6 | 0.9 | 3.5 | 22% | 2.6 | 
4 | Cc1nc(C(=O)NCC(=O)O)c(O)c2ccc(Oc3ccccc3)cc12 [Compound D, [(4-Hydroxy-1-methyl-7-phenoxy-isoquinoline-3-carbonyl)-amino]-acetic acid] | 272 mm^3 | 304 mm^3 | 373 mm^3 | 411 mm^3 | 466 mm^3 | 0.58 g | 106 mm^3 | 126 mm^3 | 148 mm^3 | 193 mm^3 | 227 mm^3 | 5.8 |  | 5 | 1.5 | 20% | 1.2 | tumor weight at necropsy, Mean (human A549 lung tumors [1]; 6 mg/kg PO): 0.51 g; A549 mean tumor volume (human A549 lung tumors [1]; week 0, 6 mg/kg PO): 109 mm^3; A549 mean tumor volume (human A549 lung tumors [1]; week 1, 6 mg/kg PO): 137 mm^3; A549 mean tumor volume (human A549 lung tumors [1]; week 2, 6 mg/kg PO): 178 mm^3; A549 mean tumor volume (human A549 lung tumors [1]; week 3, 6 mg/kg PO): 209 mm^3; A549 mean tumor volume (human A549 lung tumors [1]; week 4, 6 mg/kg PO): 263 mm^3; A549 mean tumor volume (human A549 lung tumors [1]; week 5, 6 mg/kg PO): 292 mm^3; A549 mean tumor volume (human A549 lung tumors [1]; week 6, 6 mg/kg PO): 339 mm^3; A549 mean tumor volume (human A549 lung tumors [1]; week 7, 6 mg/kg PO): 375 mm^3; A549 mean tumor volume (human A549 lung tumors [1]; week 8, 6 mg/kg PO): 431 mm^3; A549 mean tumor volume (human A549 lung tumors [1]; week 9, 6 mg/kg PO): 476 mm^3
5 | O=C(O)CNC(=O)c1ncc2cc(Oc3ccc(F)cc3)ccc2c1O [Compound E, {[7-(4-fluoro-phenoxy)-4-hydroxy-isoquinoline-3-carbonyl]-amino}-acetic acid] |  |  |  |  |  |  |  |  |  |  |  | 2.1 | 0.4 | 0.8 | 1.8 |  | 1.7 | 
